# Measured values as given in US11103454B2, “Wax foamable vehicle and pharmaceutical compositions thereof” (VYNE THERAPEUTICS INC., priority 2007, dated 2021).
# Description: In one or more embodiments, the foamable composition includes a potent solvent, in addition to or in place of one of the hydrophobic solvents, polar solvents or emollients of the composition. A potent solvent is a solvent other than mineral oil that solubilizes a specific active agent substantially better than a hydrocarbon solvent such as mineral oil or petrolatum.
SMILES,Solubility in glycofurol,Solubility in mineral oil,Solubility in dimethyl isosorbide,Solubility in propylene glycol,Solubility in polyethylene glycol 400 (PEG 400),Solubility in isostearic acid
CCCCC(=O)O[C@]1(C(=O)CO)[C@@H](C)C[C@H]2[C@@H]3CCC4=CC(=O)C=C[C@]4(C)[C@@]3(F)[C@@H](O)C[C@@]21C [Betamethasone valerate],more than 1%,< 0.01%,–,–,–,–
CCCC(=O)O[C@]1(C(=O)CO)CC[C@H]2[C@@H]3CCC4=CC(=O)CC[C@]4(C)[C@H]3[C@@H](O)C[C@@]21C [Hydrocortisone butyrate],more than 1%,< 0.01%,–,–,–,–
CC(=O)N1CCN(c2ccc(OCC3COC(Cn4ccnc4)(c4ccc(Cl)cc4Cl)O3)cc2)CC1 (stereo not drawn) [Ketoconazole],more than 1%,< 0.01%,more than 1%,more than 1%,–,–
Cc1cnc(NC(=O)C2=C(O)c3ccccc3S(=O)(=O)N2C)s1 [Meloxicam],–,< 0.001%,–,–,–,–
Cc1ncc([N+](=O)[O-])n1CCO [Metronidazole],–,< 0.01%,more than 1%,–,–,–
C/C(=C\C(=O)OCCCCCCCCC(=O)O)C[C@@H]1OC[C@H](C[C@@H]2O[C@H]2[C@@H](C)[C@H](C)O)[C@@H](O)[C@H]1O [Mupirocin],more than 1%,< 0.01%,more than 1%,more than 1%,more than 1%,–
CC(=O)[C@H]1CC[C@H]2[C@@H]3CCC4=CC(=O)CC[C@]4(C)[C@H]3CC[C@]12C [Progesterone],–,< 0.001%,–,–,–,–
"CC(C)Cn1cnc2c(N)nc3ccccc3c21 [imiquimod, 4-Amino-1-isobutyl-1H-imidazo[4,5-c] quinoline]",–,–,–,–,–,soluble
